# Marks after values point to notes of the source that are not given here. Square brackets hold non-standard residues; d marks the D form. Ends that are not written are not given here. Hyp = O=C(O)[C@@H]1C[C@@H](O)CN1
# Tests used:
# Assay type in all cases: cell-based, human
# [1] = test system: endoserine-1 (ET-1); assay: ET-1 expression suppression test (real time PCR); conditions: 0.5 mM, 24 hours, NHEK (NB), control 1.00, GAPDH corrected
# Experimental: (§1) A normal human epidermal keratinocyte NHEK (NB) (available from KURABO INDUSTRIES LTD.) was used. The cells were precultured in HuMedia-KG2 (available from KURABO INDUSTRIES LTD.), and 1.5×10^4 cells/mL×5 mL (7.5×10^4 cells/dish) were cultured in a 60 mm laboratory dish for two days. After confirming that the cells were subconfluent, the medium was replaced by 5 mL of HuMedia-KB2 (available from KURABO INDUSTRIES LTD.). Samples were added in respective concentrations, and allowed to react for 24 hours (ET-1, K10), 48 hours (TGM1, ivl, HAS2), and 72 hours (FLG). Total RNA was extracted from the cells, reverse transcribed, and subjected to real time PCR. In the real time PCR, as target genes, endoserine-1 (ET-1; Hs00174961_m1), keratin 10 (K10; Hs01043114_g1), transglutaminase 1 (TGM1; Hs01070310_m1), involucrin (ivl; Hs00846307_s1), filaggrin (FLG; Hs00856927_g1) and hyaluronic acid synthase 2 (HAS2; Hs00193435_m1) were measured. GAPDH was used as a correction gene. Calculation was conducted by using a calibration curve method, and FAM pigment of TaqMan Gene Expression was used in primers and probes.
# (§2) For each peptide or the like of Examples 1 to 13 and Comparative Examples 1 to 27, RNA expression amounts of endoserine-1 (ET-1), keratin 10 (K10), transglutaminase 1 (TGM1), involucrin (ivl), filaggrin (FLG) and hyaluronic acid synthase 2 (HAS2) were measured. Values in the tables are each average value±standard deviation, and *, ** and *** denote that they are significant with P<0.05, P<0.01, and P<0.001, respectively with respect to the control in Paired-t-test.
# [2] = test system: keratin 10 (K10); assay: K10 expression promotion test (real time PCR); conditions: 0.5 mM, 24 hours, NHEK (NB), control 1.00, GAPDH corrected
# Experimental: as §1, §2
# [3] = test system: transglutaminase 1 (TGM1); assay: TGM1 expression promotion test (real time PCR); conditions: 0.5 mM, 48 hours, NHEK (NB), control 1.00, GAPDH corrected
# Experimental: as §1, §2
# [4] = test system: involucrin (ivl); assay: ivl expression promotion test (real time PCR); conditions: 0.5 mM, 48 hours, NHEK (NB), control 1.00, GAPDH corrected
# Experimental: as §1, §2
# [5] = test system: filaggrin (FLG); assay: FLG expression promotion test (real time PCR); conditions: 0.5 mM, 72 hours, NHEK (NB), control 1.00, GAPDH corrected
# Experimental: as §1, §2
# [6] = test system: hyaluronic acid synthase 2 (HAS2); assay: HAS2 expression promotion test (real time PCR); conditions: 0.5 mM, 48 hours, NHEK (NB), control 1.00, GAPDH corrected
# Experimental: as §1, §2
substance,measurement,setting,value
Ser-[Hyp]-Gly [Example 10],Endoserine-I RNA expression amount,[1],0.89 ± 0.07*
same,Keratin 10 RNA expression amount,[2],1.77 ± 0.04**
same,Transglutaminase 1 RNA expression amount,[3],1.21 ± 0.01
same,Involucrin RNA expression amount,[4],1.59 ± 0.05*
same,Filaggrin RNA expression amount,[5],2.29 ± 0.26**
same,Hyaluronic acid synthase 2 RNA expression amount,[6],2.14 ± 0.89*
